Experimental data published in US12194021B2, “Modified herbal compositions for neuromodulation” (University of Southern California, priority 2021, dated 2025).

Assays:
TG-mice = test: Open field test of locomotor activity; assay type: in vivo; settings: 3 months
Protocol: 5) Locomotor assay: To measure the locomotor activity, the numbers of total entries were measured for each animal. Statistical differences were determined using ANOVA. These experiments will determine the effects of D-P on anxiety levels.
DHM-Piperidine Complex (D-P) can replicate DHM effects to improve behavioral impairment in TG-mice. We examined the effect of D-P on AD symptom-like behavior in aged TG2576 mice compared with age-matched wt mice. Mice were divided into three groups: (1) C57BL/6 wt male mice (2% sucrose, oral administration), (2) TG-mice (2% sucrose, oral administration), and (3) TG-mice with D-P (2 mg/kg in 2% sucrose), respectively. After 3 months of treatment, mice were examined with behavioral assays.
Locomotor activity was assayed with open field test. Running distance is one of the parameters quantifying locomotor activity (FIG. 4A). Wt control mice ran 882±55 cm during 10 min. TG-mice ran a much shorter distance (255±12 cm), while the running distance of TG-mice treated with D-P increased to 611±99 cm. […] D-P treatment in TG-mice increased rearing (19.3±2.0 times), times to explore the center (1.3±2.0 times), and duration to stay at the center (0.13±0.03 min). […] Daily oral D-P treatment for TG-mice improves locomotor activity and increased exploring activity, an instinct of animals. Anxiety was assayed with the EPM (FIG. 4D). The wt control spent 48.5±7.5% of total time in open arms and 33.5±3.2% in closed arms.

[1] = Two-week Functional Observational Battery (FOB); assay type: in vivo, rats; settings: female rats
Protocol: The results shown in Table 2 indicate that D-P is the safe compound. During the two weeks, we checked the animals' fur, response to handling, etc. […] We also made sure to observe the animals continuously for 4 hours after each treatment. We mainly focused on any negative changes in the animal's mental behavior, autonomous activity, hair, glandular secretion, feces, death, etc. We found no notable changes with these evaluations.

## piperidin-1-ium (2R,3R)-2-(3,4-dihydroxy-5-oxidophenyl)-3,5-dihydroxy-4-oxochroman-7-olate [D-P]
TG-mice; 2 mg/kg in 2% sucrose, 10 min, untreated TG 255±12
  running distance: 611±99 cm
TG-mice; 2 mg/kg, untreated TG 0.02±0.01
  duration to stay at the center: 0.13 ± 0.03 min
TG-mice; 2 mg/kg, untreated TG 0.2±0.1
  times to explore the center: 1.3±2.0 times
TG-mice; 2 mg/kg, untreated TG 12.5±2.1
  rearing: 19.3±2.0 times
[1]; 1 mg/kg oral daily, day0
  Breath (B): 85 ± 0.5 per minute
  Pulse (P): 366 ± 1.0 beats/minute
  Temperature (T): 36.5 ± 0.4 °C
[1]; 1 mg/kg oral daily, day3
  Breath (B): 85 ± 0.5 per minute
  Pulse (P): 366 ± 0.4 beats/minute
  Temperature (T): 36.5 ± 0.3 °C
[1]; 1 mg/kg oral daily, day5
  Breath (B): 85 ± 0.4 per minute
  Pulse (P): 366 ± 1.3 beats/minute
  Temperature (T): 36.5 ± 1.1 °C
[1]; 1 mg/kg oral daily, day8
  Breath (B): 85 ± 0.5 per minute
  Pulse (P): 366 ± 4.1 beats/minute
  Temperature (T): 36.5 ± 1.2 °C
[1]; 1 mg/kg oral daily, day10
  Breath (B): 85 ± 0.5 per minute
  Pulse (P): 366 ± 1.0 beats/minute
  Temperature (T): 36.5 ± 0.4 °C
[1]; 1 mg/kg oral daily, day12
  Breath (B): 85 ± 0.5 per minute
  Pulse (P): 366 ± 7.4 beats/minute
  Temperature (T): 36.5 ± 0.3 °C
[1]; 1 mg/kg oral daily, day14
  Breath (B): 85 ± 0.4 per minute
  Pulse (P): 366 ± 6.3 beats/minute
  Temperature (T): 36.5 ± 1.1 °C
[1]; 10 mg/kg oral daily, day0
  Breath (B): 86 ± 0.6 per minute
  Pulse (P): 367 ± 0.5 beats/minute
  Temperature (T): 36.3 ± 0.6 °C
[1]; 10 mg/kg oral daily, day3
  Breath (B): 86 ± 0.5 per minute
  Pulse (P): 371 ± 2.2 beats/minute
  Temperature (T): 36.3 ± 0.7 °C
[1]; 10 mg/kg oral daily, day5
  Breath (B): 86 ± 0.5 per minute
  Pulse (P): 369 ± 6.8 beats/minute
  Temperature (T): 36.3 ± 1.0 °C
[1]; 10 mg/kg oral daily, day8
  Breath (B): 86 ± 0.5 per minute
  Pulse (P): 368 ± 6.1 beats/minute
  Temperature (T): 36.3 ± 1.2 °C
[1]; 10 mg/kg oral daily, day10
  Breath (B): 86 ± 0.6 per minute
  Pulse (P): 366 ± 6.5 beats/minute
  Temperature (T): 36.3 ± 0.6 °C
[1]; 10 mg/kg oral daily, day12
  Breath (B): 86 ± 0.5 per minute
  Pulse (P): 367 ± 9.2 beats/minute
  Temperature (T): 36.3 ± 0.7 °C
[1]; 10 mg/kg oral daily, day14
  Breath (B): 86 ± 0.5 per minute
  Pulse (P): 372 ± 6.8 beats/minute
  Temperature (T): 36.3 ± 1.0 °C
[1]; 100 mg/kg oral daily, day0
  Breath (B): 85 ± 0.6 per minute
  Pulse (P): 366 ± 9.5 beats/minute
  Temperature (T): 36.2 ± 0.7 °C
[1]; 100 mg/kg oral daily, day3
  Breath (B): 85 ± 0.4 per minute
  Pulse (P): 364 ± 0.5 beats/minute
  Temperature (T): 36.2 ± 0.7 °C
[1]; 100 mg/kg oral daily, day5
  Breath (B): 85 ± 0.8 per minute
  Pulse (P): 371 ± 1.5 beats/minute
  Temperature (T): 36.2 ± 0.7 °C
[1]; 100 mg/kg oral daily, day8
  Breath (B): 85 ± 0.6 per minute
  Pulse (P): 367 ± 1.5 beats/minute
  Temperature (T): 36.2 ± 0.9 °C
[1]; 100 mg/kg oral daily, day10
  Breath (B): 85 ± 0.6 per minute
  Pulse (P): 369 ± 9.5 beats/minute
  Temperature (T): 36.2 ± 0.7 °C
[1]; 100 mg/kg oral daily, day12
  Breath (B): 85 ± 0.4 per minute
  Pulse (P): 373 ± 6.5 beats/minute
  Temperature (T): 36.2 ± 0.7 °C
[1]; 100 mg/kg oral daily, day14
  Breath (B): 85 ± 0.8 per minute
  Pulse (P): 371 ± 4.5 beats/minute
